Test results published in patent publication US20210102200A1, “SMALL MOLECULE TARGETED RECRUITMENT OF A NUCLEASE TO RNA” (The Scripps Research Institute, priority 2018, published 2021).

Columns and labels:
DNA = assay: Microscale thermophoresis binding, DNA Hairpin
Description: (§1) MST fluorescent measurements were performed on a Monolith NT.115 system (NanoTemper Technologies) using the fluorescence of a 5′-Cy5 labeled miR-210 Hairpin RNA (5′—Cy5 […]) (SEQ ID NO: 11), a 5′-Cy5 miR-210 Mutant RNA (5′—Cy5 […]) (SEQ ID NO: 12), or a 5′ Cy5 DNA Hairpin (5′—Cy5 […]) (SEQ ID NO: 13) which were purchased from IDT with RNase-free HPLC purification and used without further purification. The RNA (5 nM) was prepared in 1×MST Buffer (8 mM Na2HPO4, 190 mM NaCl, 1 mM EDTA, and 0.05% (v/v) Tween-20) and folded by heating at 60° C. for 5 min, and slowly cooling to room temperature. Compounds (TGP-210 or TGP-210-RL) were diluted in 1×MST Buffer and then were added to a final concentration of 20 μM, followed by 1:2 dilutions in 1×MST Buffer containing 5 nM RNA. Alternatively, RNase L in 1×MST Buffer was added to a final concentration of 50 nM in addition to compound and RNA. […] Fluorescence measurements (Ex: 605-645 nm, Em: 680-685 nm) were performed at 20% LED and 80% MST power, with a Laser-On time of 30 s and Laser-Off time of 5 s. The data were analyzed by thermophoresis analysis and fitted by the quadratic binding equation in MST analysis software (NanoTemper Technologies). Dissociation constants were then determined by curve fitting using a single-site model.

MDA-MB-231 cells = assay: Caspase 3/7 activity in MDA-MB-231 cells; type: cell-based
Description: Approximately 5,000 MDA-MB-231 cells were plated into white, cell-culture treated, 96-well plates (Corning). At ˜60% confluency, cells were treated with dilutions of LNA-210, Scr-LNA, TGP-210, or TGP-210-RL and then placed under hypoxic or normoxic conditions. After 48 h, caspase 3/7 activity was measured using a Caspase-Glo 3/7 kit (Promega) according to the manufacturer's protocol. Alternatively, MDA-MB-231 cells were transfected with a plasmid overexpressing pre-miR-210 (Genecopoeia; HmiR0167-MR04) using Lipofectamine 2000 (Invitrogen). After 5 h of transfection, cells were plated into white, cell-culture treated 96-well plates (Corning) and then treated as described above. Fold change in Caspase activity was calculated by normalizing treated samples to the untreated samples after subtracting background sample values.

pre-miR-210 = pre-miR-210 levels / cleavage in hypoxic MDA-MB-231 cells by RT-qPCR; type: cell-based
Description: (§2) MDA-MB-231 (HTB-26; ATCC) cells were cultured in Roswell Park Memorial Institute (RPM I) 1640 media with L-glutamine & 25 mM HEPES (Corning) supplemented with 10% fetal bovine serum (FBS) (Sigma) and 1×Penicillin Streptomycin Solution (Corning). Cells cultured in normoxia were maintained at 37° C. in ambient atmosphere (˜21% O2) with 5% CO2. Cells cultured in hypoxia were maintained at 37° C., <1% O2 in a nitrogen filled hypoxic chamber (Billups-Rothenberg, Inc.), and 5% CO2. Cells were directly purchased from ATCC, but were not authenticated.
(§3) For compound treatment (TGP-210, TGP-210-RL, LNA-210, Scr-LNA), compound stocks in DMSO or water were diluted in growth medium and added to cells for 24-48 h. […]
(§4) MDA-MB-231 cells were treated in normoxic or hypoxic conditions for 24-48 h, as described above in the Experimental Model and Subject Details section. […] RNA expression levels were determined using the ΔΔCt method and normalized using 18S ribosomal RNA or U6 small nuclear RNA as housekeeping genes. […] Upon treatment with chimeric compound TGP-210-RL, relative cleavage levels were calculated according to equation 1A (Eq. 1A) in order to control for the effect of parent compound TGP-210, on pre-miR-210 expression: […]

[1] = system: triple negative breast cancer; conditions: triple negative breast cancer mouse model; cited from earlier work
pre-miR-210 mimic = assay: Microscale thermophoresis binding, miR-210 Hairpin RNA; conditions: MST
Description: as §1

mature miR-210 = assay: Mature miR-210 levels in hypoxic MDA-MB-231 cells by RT-qPCR; type: cell-based
Description: as §2, §3, §4

Targapremir-210 [TGP-210]
Selectivity window between DNA and the Dicer site in pre-miR-210 (DNA): 5 fold
Kd (DNA; MST): 620 nM
Apoptotic stimulation (caspase activity) (MDA-MB-231 cells; hypoxic MDA-MB-231 cells, 48 h, TGP-210-RL at 500 nM): similar
Apoptosis upon miR-210 overexpression (MDA-MB-231 cells; miR-210 overexpressed background): no longer stimulated apoptosis
Cleavage of pre-miR-210 by TGP-210-RL upon addition of TGP-210 (pre-miR-210; constant TGP-210-RL, increasing amounts of TGP-210): caused a decrease in cleavage of pre-miR-210
pre-miR-210 levels (pre-miR-210; hypoxic MDA-MB-231 cells): increase
Tumor growth [1]: inhibited tumor growth
Kd (pre-miR-210 mimic): 160 nM
Levels of mature miR-210 (mature miR-210): decreased
